From patent US20240270786A1, “STEROID COMPOUNDS” (Epirium Bio Inc., priority 2022, published 2024) come the findings set out here.

Common to all, as to assay type: biochemical, mouse
In assay [1] the test system is mitochondrial ATP synthase. Description: ATP hydrolysis (acidification, Seahorse XF96) in fresh heart mitochondria. Conditions: fresh heart mitochondria (FIG. 1, FIG. 2). The source says: (§1) To assess whether the fraction of synthetic and reverse hydrolytic activities of mitochondrial ATP synthase can be measured in the same preparation, a protocol was developed to monitor changes in oxygen consumption and proton release in response to changes in mitochondrial ATP synthase activity. The proton released and the concomitant changes in the pH can be monitored using the ECAR (extracellular acidification) channel in the Agilent Seahorse XF analyzer using isolated mitochondria, to ensure that the changes in pH cannot be attributed to glycolysis or other contributors to ECAR.
Mice were anesthetized with isoflurane followed by a cervical dislocation, and the heart was immediately removed and placed in ice cold relaxation buffer (5 mM sodium pyrophosphate, 100 mM KCl, 5 mM EGTA, 5 mM HEPES; pH 7.4). The heart was squeezed with tweezers to remove blood, minced with scissors, and then placed in a glass-glass Dounce homogenizer with 3 mL of HES homogenization buffer (250 mM sucrose, 5 mM HEPES, 1 mM EDTA; pH to 7.2, adjusted with KOH). The heart tissue was homogenized first with the loose pestle and followed by the tight pestle. The homogenized tissue was placed in a pre-chilled 15 mL conical tube and centrifuged at 900×g (4° C.) for 10 minutes (min). The supernatant was removed, placed in a new tube and centrifuged again at 900×g for 10 min. The supernatant was then transferred to 2 mL microcentrifuge tubes and centrifuged at 10,000×g (4° C.) for 10 min. The mitochondrial pellets were re-suspended in ice cold HES buffer and mitochondrial protein was measured with a BCA assay (Pierce). The concentrated mitochondrial pellet was stored on ice. […]
ATP hydrolysis capacity or state 4 acidification was measured using Seahorse XF96 as described in Divakaruni et al. (2018) Anal Biochem 552:60-65 and Acin-Perez et al. (2021) Life 11(9):949, in MAS (70 mM Sucrose, 220 mM Mannitol, 5 mM KH2PO4, 5 mM MgCl2, 1 mM EGTA, 2 mM HEPES; pH 7.2). […]

Assay [2] deals with mitochondrial ATP synthase. As to the kind of experiment: ATP synthesis (oxygen consumption, Seahorse XF96) in fresh heart mitochondria. Conditions: Complex I or Complex II substrates (FIG. 1, FIG. 2).
Text: as §1
Mice were anesthetized with isoflurane followed by a cervical dislocation, and the heart was immediately removed and placed in ice cold relaxation buffer (5 mM sodium pyrophosphate, 100 mM KCl, 5 mM EGTA, 5 mM HEPES; pH 7.4). […] The mitochondrial pellets were re-suspended in ice cold HES buffer and mitochondrial protein was measured with a BCA assay (Pierce). […]
Oxygen consumption was measured in isolated fresh intact mitochondria from mouse heart, as oxygen consumption is linked to maximal ATP synthesis and proton release when mitochondria are respiring either in the presence of substrates and ADP (ATP synthesizing mitochondria or state 3) or in the presence of substrates but not ADP (state 4). […]

Assay [3] concerns mitochondrial ATP synthase. As to the kind of experiment: Maximal ATP hydrolysis capacity in frozen heart mitochondria. Conditions: oligomycin at different concentrations in the assay media.
Method: Plates were loaded with 0.75-1.5 μg of mouse heart mitochondria, or 25 μg of cell lysate. Cell lysates were prepared by subjecting the samples to 4 cycles of free thaw (liquid nitrogen—37° C. water bath) before measuring protein concentration. When assessing compounds effect on respirometry, the compounds were added in MAS after sample centrifugation. Initial respiration of the samples was sustained by the addition of 5 mM succinate+2 μM rotenone in the MAS after centrifugation. Injections were performed at the following final concentration in the well: Antimycin A (2 μM), oligomycin (5 μM), FCCP (1 μM), ATP (20 mM). To assess maximal ATP concentration, ATP was injected consecutively. An additional assay was developed to determine the maximal ATP hydrolysis capacity in frozen mitochondria. Maximal ATP hydrolytic capacity was assessed in frozen heart mitochondria where mitochondrial respiration is inhibited by Antimycin A and maximal ATP hydrolysis is driven by co-injection of FCCP and ATP, followed by inhibition in the presence of oligomycin.

Take `CC[C@H]1/C=C/C=C/C[C@@H](C)[C@H](O)[C@@](C)(O)C(=O)[C@@H](C)[C@H](O)[C@@H](C)C(=O)[C@@H](C)[C@H](O)[C@@H](C)/C=C/C(=O)O[C@@H]2[C@H](C)[C@H](CC1)O[C@]1(CC[C@H](C)[C@H](C[C@@H](C)O)O1)[C@H]2C` [Oligomycin, oligomycin, reference compound]: the values for the ATP hydrolysis result in assay [1] and in assay [3] were “worked as expected” and “dose dependent inhibition of ATP hydrolysis”, respectively. For the same molecule, the ATP synthesis entry in assay [2] is reported as “worked as expected”.
